Measured values as given in patent US7115749B2, “Substituted 5-oxo pyrazoles and [1,2,4]triazoles as antiviral agents” (priority 2004, dated 2006).
pIC50: −log10 of the molar value.

Biological target: HCV RNA-dependent RNA polymerase NS5B (Δ21) (Hepatitis C virus genotype 1b, UniProt P26663)
Experiment: Assay for HCV RNA-dependent RNA polymerase activity (SPA, [3H]-GTP incorporation)
Assay type: biochemical
Method: Assay for HCV RNA-dependent RNA Polymerase Activity
Inhibitory activity of the present compounds against HCV RNA-dependent RNA polymerase was assayed according to the methods disclosed in U.S. Patent Application U.S.2004/038993, content of which is incorporated herein by reference; and those described in Ferrari, E.; Wright-Minogue, J.; Fang, J. W. S.; Baroudy, B. M.; Lau, J. Y. N.; Hong, Z. J. Virol. 1999, 73, 1649.
Briefly, 50 μl reactions containing 20 mM HEPES (pH 7.3), 7.5 mM DTT, 20 units/ml RNasIN, 0.5 ug/ml biotinylated oligoG12, 5 μg/ml polyC, 5 μM GTP, 20 μCi/ml [^3H]-GTP, 10 mM MgCl2, 60 mM NaCl, 100 μg/ml BSA, and 50 nM NS5B (Δ21) were incubated at room temperature for three hours in 96-well plates with or without test compounds. Assay was terminated by the addition of 50 μl 10 mg/ml streptavidin-coated SPA beads supplemented with 100 mM EDTA, and the incorporation of labeled GTP determined by a TopCount Scintillation Counter. IC50 values were calculated from single experiments using 11 serial 2-fold dilutions (0.05–50 μM), and data were considered reliable only when the IC50 value of a positive internal control was within standard deviation range.

Chain of HCV RNA-dependent RNA polymerase NS5B (Δ21) (P26663 2420-2989, stated change not applied): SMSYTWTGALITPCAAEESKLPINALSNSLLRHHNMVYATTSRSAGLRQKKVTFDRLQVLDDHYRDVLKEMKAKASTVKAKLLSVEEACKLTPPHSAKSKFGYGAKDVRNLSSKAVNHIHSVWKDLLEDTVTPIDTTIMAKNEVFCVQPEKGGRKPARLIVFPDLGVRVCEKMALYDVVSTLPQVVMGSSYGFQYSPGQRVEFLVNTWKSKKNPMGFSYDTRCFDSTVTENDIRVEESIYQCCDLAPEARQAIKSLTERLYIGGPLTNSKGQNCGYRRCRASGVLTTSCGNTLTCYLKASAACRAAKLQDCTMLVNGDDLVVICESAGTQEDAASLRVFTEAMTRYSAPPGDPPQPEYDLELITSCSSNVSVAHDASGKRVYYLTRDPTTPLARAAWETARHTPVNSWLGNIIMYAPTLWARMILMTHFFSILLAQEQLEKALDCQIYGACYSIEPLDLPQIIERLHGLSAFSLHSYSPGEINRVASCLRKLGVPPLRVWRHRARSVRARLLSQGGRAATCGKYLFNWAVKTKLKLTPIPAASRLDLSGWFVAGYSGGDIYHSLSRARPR

`O=C(Cn1nc(C(=O)O)cc1OCc1ccccc1-c1ccc(C(F)(F)F)cc1)NCCCc1ccccc1` [Compound 63] gave a pIC50 of 4.92.

With `O=C(Cn1nc(C(=O)O)cc1OCc1ccccc1-c1ccccc1)N[C@H]1CCCC[C@@H]1OCc1ccccc1` [Compound 3] the pIC50 was 6.00.

`CC(C)COc1cc(C(=O)O)nn1CC(=O)N[C@H]1CCCC[C@@H]1OCc1ccccc1` [Compound 60] showed a pIC50 of under 4.30.

`CS(=O)(=O)c1ccc(-c2ccccc2COc2cc(C(=O)O)nn2CC(=O)N[C@H]2CCCC[C@@H]2OCc2ccccc2)cc1` [Compound 52] gave a pIC50 of 5.04.

Work on `CCOc1ccccc1COc1cc(C(=O)O)nn1CC(=O)Nc1ccccc1OCc1ccccc1` [Compound 6] yielded a pIC50 of 4.40.

Work on `COc1cccc(COc2cc(C(=O)O)nn2CC(=O)N[C@H]2CCCC[C@@H]2OCc2ccccc2)c1` [Compound 47] yielded a pIC50 of under 4.30.

With `O=C(Cn1nc(C(=O)O)cc1OCc1ccccc1F)N[C@H]1CCCC[C@@H]1OCc1ccccc1` [Compound 14] the pIC50 was under 4.90.
